Series [1] in a line: Cleanout test (rimsulfuron residue in polyethylene bottles after rinsing, extracted with acetonitrile). The class given is physicochemical. Particulars: for Cleanout rating, % (concentration of rimsulfuron herbicide in the acetonitrile solution): dispersed in tap water, stood overnight, lower rating = more effective cleanout. Here is the method:
The cleanout test was conducted by dispersing in water a sample to produce a concentration that is normally used when applying the herbicide: 25% rimsulfuron. The sample was added to tap water (300 mL) in a 400 mL beaker and magnetically stirred for 2 minutes. The mixture was then stirred for 2 minutes, whereupon the resulting dispersion was dispensed in three 100 mL aliquots to 4-oz (118 mL) polyethylene bottles. The bottles were capped, inverted twice and allowed to stand overnight.
After standing overnight, each individual bottle was inverted twice and the liquid contents were then poured out. Tap water (10 mL) was added and the bottle was inverted until all sediment was re-suspended, whereupon the contents were poured out. Tap water (100 mL) was added and the bottle was inverted twice and then allowed to stand undisturbed for 10 minutes. The bottle was inverted twice more and the contents were poured out. Acetonitrile (10 mL) was added to the bottle to extract any remaining material. The acetonitrile solution was analyzed by reversed-phase liquid chromatography with UV detection. The cleanout rating (the concentration of rimsulfuron herbicide in the acetonitrile solution) is reported in % in Table 6 below.

The format of series [2] is physicochemical. Particulars: pH 7 buffer, test temperature e.g. 20° C.
The format of series [3] is physicochemical. On the procedure: A stock pH 7 buffer solution was prepared by adding aqueous sodium hydroxide solution (0.1 M, 145 mL) to aqueous potassium dihydrogen phosphate solution (0.1 M, 250 mL), and then adding sufficient distilled water to adjust the final volume to 500 mL. At least 1 time and up to about 5 times the amount of rimsulfruon needed for saturation was added to a mixing vessel containing stock buffer solution at the test temperature (e.g., 20° C.). The mixture was magnetically stirred in the dark while being maintained at the test temperature. Samples were periodically removed for analysis. The samples were centrifuged using a high speed, temperature-controlled centrifuge at the test temperature for about 20 minutes at ≧12000 G to remove suspended particles. An aliquot of each supernatant was taken for analysis. The concentration of rimsulfuron in the supernatant was determined by a high pressure liquid chromatography (HPLC) with a reversed phase chromatography column and UV detection. The method should include development of best-fit calibration curves based on at least three standards using linear regression analysis Samples were successively withdrawn from the mixing vessel and analyzed until three successive samples show little or no variation in concentration. The test is preferably replicated to ensure accuracy.

Where [4] appears, read: OD formulation, original concentration 40%.
[5] abbreviates: SG formulation, original concentration 25%.
Setting [6] is: WG formulation, original concentration 25%.

Read-outs that look alike come from different tables or passages of the source.

Regarding `CCS(=O)(=O)c1cccnc1S(=O)(=O)NC(=O)Nc1nc(OC)cc(OC)n1` [Amorphous Rimsulfuron, prepared in Example 1] [1-(4,6-dimethoxypyrimidin-2-yl)-3-(3-ethylsulfonyl-2-pyridylsulfonyl)urea, reference compound], the “Cleanout rating, % (concentration of rimsulfuron herbicide in the acetonitrile solution)” value in series [1] (OD formulation) is given as 26%; in series [1] (SG formulation), 10%; in series [1] (WG formulation) it was 13%. Further, the “Concentration measured by HPLC after treatment, %” value in series [2] (setting [4]) turned out to be 14%; in series [2] (setting [5]), 15%; in series [2] (setting [6]) it was 12%.
As to `CCS(=O)(=O)c1cccnc1S(=O)(=O)NC(=O)Nc1nc(OC)cc(OC)n1` [Rimsulfuron, crystal form A, 98%, prepared in Example 2] [1-(4,6-dimethoxypyrimidin-2-yl)-3-(3-ethylsulfonyl-2-pyridylsulfonyl)urea], the “Solubility compared with amorphous rimsulfuron (in words)” value in series [3] was “significant increase in its solubility”. For the same molecule, the “Cleanout rating, % (concentration of rimsulfuron herbicide in the acetonitrile solution)” value in series [1] (OD formulation) is recorded as 5%; in series [1] (SG formulation) it was 0.1%; in series [1] (WG formulation) it was 2%. For the same molecule, the “Cleanout properties compared with the known amorphous rimsulfuron product (in words)” value in series [1] (summary of Table 6) is “markedly superior cleanout properties”. Moreover, the “Concentration measured by HPLC after treatment, %” value is 35% in series [2] (setting [4]), 24.9% in series [2] (setting [5]) and 23% in series [2] (setting [6]).
